Assays:
Type in all cases: in vivo
[1] = system: Aster Leafhopper [Macrosteles fascifrens (Stal)]; experiment: Aster leafhopper insecticidal test; conditions: adults/nymphs, percent in solution; 48 hours
In short: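 Three ~10 cm oat seedlings per cup were dipped 2-3 seconds in 50-50 acetone-water compound solutions, dried, and caged with ten adult/nymph leafhoppers. Mortality was counted after 48 hours at concentrations from 0.05% downward. LC50, as percent compound in solution, came from dosage-mortality curves.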

[2] = system: Beet Armyworm (Spodoptera exigua); experiment: Beet armyworm insecticidal test; conditions: second-instar larvae, percent in solution; five days
In short: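 Sugar beet leaves dipped 2–3 s in compound diluted in 50:50 acetone-water, dried, then infested with five second-instar larvae in humid petri dishes. Mortality scored at 5 days; concentrations from 0.1% downward. LC50 from dosage-mortality curves, expressed as percent compound in solution.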

[3] = system: Tobacco Budworm [Heliothis virescens (Fabricius)] larvae; experiment: Tobacco budworm contact test; conditions: second-instar larvae, percent in solution, 5 days
In short: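 Cotton cotyledons dipped 2–3 s in compound in 50-50 acetone-water, dried, then infested with 5 second-instar larvae and held 5 days at high humidity. Mortality scored; LC50 from dosage-mortality curves, expressed as percent compound in solution, concentrations from 0.1% downward.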

[4] = system: Rice water weevil [Lissorhoptrus oryzophilus (Kuschel)]; experiment: Rice water weevil insecticidal test; conditions: topical, μg per weevil; 48 hours
In short: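 Female adult weevils (ten per dose) received 1 μl acetone droplets topically on the ventral abdomen, then were held with rice foliage and wet cotton at about 25 °C. Mortality scored at 48 h; LC50 in μg per weevil from dosage-mortality curves, top dose 2.5 μg per weevil.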

[5] = system: Maize weevil [Sitophilus Zeamais (Motschulsky)]; experiment: Maize weevil insecticidal test; conditions: adult weevils, percent in solution; 48 hours
In short: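 LC50, in percent of compound in solution, was derived from dosage-mortality curves after 48 h at about 25 °C. Ten adult weevils per container fed on four corn seeds briefly immersed in acetone:water (50:50) solutions of up to 0.01% and dried.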

[6] = system: Tobacco Budworm [Heliothis virescens (Fabricius)] eggs; experiment: Tobacco budworm egg test; conditions: 2-day old eggs, percent in solution
In short: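 LC50 values (percent test compound in the dip solution) were calculated from dosage-mortality curves. Egg patches, 2 days old, were dipped in acetone solutions at concentrations from 0.1% downward and held at 78° F on rearing medium until control larvae hatched and fed.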

[7] = system: Housefly [Musca domestica]; experiment: Housefly insecticidal test; conditions: μg per 25 female flies; mortality after 48 hours
In short: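 Residual contact test: acetone dilution, 0.01% peanut oil spreader, solvent evaporated; 25 ♀ flies (1-2 d old) per cage; sugar-water plug; 48 h mortality read. LC50 in μg/25 female flies, from dose-mortality curves; top dose 100 μg/25 flies.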

[8] = system: Cabbage Looper [Trichoplusia ni (Hubner)]; experiment: Cabbage looper insecticidal test; conditions: second-instar larvae, percent in solution; 3-5 days
In short: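 Leaf dip, squash cotyledons, 50-50 acetone-water, top dose 0.1% and lower. 5 second-instar larvae/dish, moist filter paper, high-humidity chamber. Mortality at 3-5 d; LC50 (% in solution) from dosage-mortality curves.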

[9] = system: Black Bean Aphid [Aphis fabae (Scop.)]; experiment: Black bean aphid insecticidal test; conditions: percent of test compound in sprayed solution; 48 hours
Procedure: The compounds in Tables 1 and 2 above were tested for insecticidal activity using the following testing procedures. LC50 values, based on the results of these tests and calculated according to dosage-mortality curves, are expressed in Table 3.
Black Bean Aphid [Aphis fabae (Scop.)]:
Nasturtium plants (Tropaeolum sp.) approximately 5 cm tall, were transplanted into sandy loam soil in small cups and infested with 25-50 black bean aphids of mixed ages. Twenty-four hours later they were sprayed to the point of runoff with 50-50 acetone-water solutions of the test compounds. Treated plants were held in the greenhouse and mortality was recorded after 48 hours. Test concentrations ranged from 0.05% downward. The LC-50 value is expressed below in Table 3 under the heading "BBA" in terms of percent of the test compound in the sprayed solution.

SMILES | LC50, LH [1] [%] | LC50, BAW [2] [%] | LC50, TBW, C (TBW-C) [3] [%] | LC50, RWW [4] [µg] | LC50, MW [5] [%] | LC50, TBW, E (TBW-E) [6] [%] | LC50, HF [7] [µg] | LC50, CL [8] [%] | LC50, BBA [9] [%]
CC(C)C(=Nc1ccc(F)c(Cl)c1)OCc1cccc(Oc2ccc(Cl)cc2)c1 [Compound 239] | 0.002 | 0.005 | 0.0005 | > 2.5 | 0.006 | 0.025 | 14 | 0.00015 | 
CC(C)C(=Nc1ccc(F)c(Cl)c1)OCc1ccc(F)c(Oc2ccc(Cl)cc2)c1 [Compound 267] | 0.002 | 0.0012 | 0.0003 | 0.11 | 0.0027 | 0.015 | 8.4 | 0.00008 | 
CC(C)C(=Nc1ccc(Cl)cc1)OCc1cccc(Oc2ccc(Cl)cc2)c1 [Compound 269] | 0.003 | 0.0024 | 0.001 | > 2.5 | > 0.01 | 0.04 | 25 | 0.0003 | 
CC(C)C(=Nc1ccc(F)c(Br)c1)OCc1ccc(F)c(Oc2ccc(F)cc2)c1 [Compound 273] | 0.0003 | 0.0017 | 0.00025 | > 2.5 | 0.004 | 0.015 | 7 | 0.000018 | 
CC(C)C(=Nc1ccc(F)c(C(F)(F)F)c1)OCc1ccc(F)c(Oc2ccc(F)cc2)c1 [Compound 277] | 0.0003 | 0.005 | 0.0005 | 0.065 | > 0.01 | 0.013 | 4 | 0.00001 | 
CC(C)C(=Nc1ccc(F)c(F)c1)OCc1ccc(F)c(Oc2ccc(F)cc2)c1 [Compound 278] | 0.0003 | 0.0012 | 0.00026 | 0.085 | 0.0063 | 0.008 | 3 | 0.00002 | 
CC(C)C(=Nc1ccc(OC(F)(F)F)cc1)OCc1ccc(F)c(Oc2ccc(F)cc2)c1 [Compound 286] | 0.0006 | 0.0004 | 0.00017 | 0.09 | 0.0039 | 0.005 | 34 | 0.000024 | 
CC(C)C(=Nc1ccc(OC(F)(F)F)cc1)OCc1ccc(F)c(Oc2ccc(Cl)cc2)c1 [Compound 323] | 0.05 | 0.0025 | 0.00065 | 0.16 | 0.0075 | 0.045 | > 100 | 0.0006 | 
CC(C)C(=Nc1ccc(OC(F)(F)F)c(Cl)c1)OCc1cc(F)cc(Oc2ccc(F)cc2)c1 [Compound 328] |  |  |  |  |  | > 0.1 | > 100 | 0.03 | > 0.05
CC(C)C(=Nc1ccc(F)c(Cl)c1F)OCc1cccc(Oc2ccc(F)cc2)c1 [Compound 352] | 0.0004 | > 0.1 | 0.0004 | > 2.5 | 0.0075 | > 0.1 | 4.6 | 0.000065 | 

From patent US5070210A, “Novel ketenimines as intermediates for insecticides” (ICI Americas Inc., priority 1990, dated 1991)
